Where two headings read alike, the source gives them in different places. Non-standard residues stand in square brackets, D forms with d. Residues, ends and D or L forms follow the SMILES beside them. *: point of attachment. Lys(Me3) = C[N+](C)(C)CCCC[C@H](N)C(=O)O; Octanoyl = CCCCCCCC(=O)*
What was measured:
[1] = system: E. cloacae 118564; type: cell-based, Enterobacter cloacae; details: for MICUTBLP: UTBLP alone
Experimental: (§1) The synergy of the UTBLPs with various antibiotics was assessed using checkerboard assay as previously described. Briefly, the combination of antibiotic and OMP at varying concentrations were incubated with bacterial inoculum (5 × 10^5 CFU/mL final concentration) at 37 °C for 18 h. Growth in the form of turbidity was confirmed using an EMax Plus microplate reader (Molecular Devices, Union City, CA, USA) at 590 nm. Fractional inhibitory concentration index (FICI) was used to evaluate the interaction between the antibiotic and the OMP. FICI is the sum of the FIC of the antibiotic and the FIC of the OMP. The FIC value is calculated by dividing the MIC of the agents in combination by the MIC of the agent alone. FICI ≤ 0.5 is synergistic, 0.5 < x ≤ 4 is additive, and >4 is antagonistic.

[2] = system: MRSA ATCC 33592; type: cell-based, Staphylococcus aureus; details: ATCC 33592, 18 h
Experimental: (§2) The in vitro antibacterial activity of the UTBLPs was assessed against wild-type and clinically isolated bacterial strains. To obtain the MIC of the compounds, the microbroth dilution susceptibility assay was performed according to the Clinical and Laboratory Standards Institute (CLSI, Wayne, PA, USA) guidelines and as previously described. Briefly, the compounds at varying concentrations were incubated with bacterial inoculum (5 × 10^5 CFU/mL final concentration) at 37 °C for 18 h. Growth in the form of turbidity was confirmed using an EMax Plus microplate reader (Molecular Devices, San Jose, CA, USA) at 590 nm.

[3] = system: S. aureus ATCC 29213; type: cell-based, Staphylococcus aureus; details: ATCC 29213, 18 h
Experimental: as §2

[4] = system: E. coli 94474; test: microbe, parasite or virus in culture; type: cell-based, Escherichia coli; details: 94474, 18 h
Experimental: as §2

[5] = system: E. coli 94393; test: microbe, parasite or virus in culture; type: cell-based, Escherichia coli; details: 94393, 18 h
Experimental: as §2

[6] = system: P. aeruginosa PAO1; type: cell-based, Pseudomonas aeruginosa; details: PAO1, 18 h
Experimental: as §2

[7] = system: E. faecium ATCC 27270; type: cell-based, Enterococcus faecium
Experimental: as §1

[8] = system: E. faecalis ATCC 29212; type: cell-based, Enterococcus faecalis
Experimental: as §1

[9] = system: P. aeruginosa PA259-96196; type: cell-based, Pseudomonas aeruginosa; details: for MICUTBLP: UTBLP alone
Experimental: as §1

[10] = system: P. aeruginosa PAO1; type: cell-based, Pseudomonas aeruginosa; details: for MICUTBLP: UTBLP alone
Experimental: as §1

[11] = system: P. aeruginosa PA262-101856; type: cell-based, Pseudomonas aeruginosa; details: for MICUTBLP: UTBLP alone
Experimental: as §1

[12] = system: A. baumannii AB027; test: microbe, parasite or virus in culture; type: cell-based, Acinetobacter baumannii; details: AB027, 18 h
Experimental: as §2

[13] = system: A. baumannii AB92247; test: microbe, parasite or virus in culture; type: cell-based, Acinetobacter baumannii; details: AB92247, 18 h
Experimental: as §2

[14] = system: K. pneumoniae 113250; test: microbe, parasite or virus in culture; type: cell-based, Klebsiella pneumoniae; details: 113250, 18 h
Experimental: as §2

[15] = system: E. cloacae 118564; test: microbe, parasite or virus in culture; type: cell-based, Enterobacter cloacae; details: 118564, 18 h
Experimental: as §2

[16] = system: MRSA ATCC 33592; type: cell-based, Staphylococcus aureus
Experimental: as §1

[17] = system: S. aureus ATCC 29213; type: cell-based, Staphylococcus aureus
Experimental: as §1

[18] = UTBLP in combination with novobiocin
[19] = UTBLP in combination with rifampicin
[20] = novobiocin in combination with the UTBLP
[21] = rifampicin in combination with the UTBLP
[22] = UTBLP alone, plate with chloramphenicol
[23] = UTBLP in combination with chloramphenicol
[24] = chloramphenicol in combination with the UTBLP

CCCCCCCC(=O)NCCCC[C@H](NC(=O)CCCCCCC)C(=O)N[C@@H](CCCC[N+](C)(C)C)C(=O)N[C@@H](CCCC[N+](C)(C)C)C(=O)N[C@@H](CCCC[N+](C)(C)C)C(=O)N[C@@H](CCCC[N+](C)(C)C)C(N)=O [UTBLP 8] (Octanoyl-K(Octanoyl)[Lys(Me3)][Lys(Me3)][Lys(Me3)][Lys(Me3)]-NH2)
Interpretation ([1]; UTBLP + novobiocin): Synergy (FICI ≤ 0.5 is synergistic) | Interpretation ([1]; UTBLP + rifampicin): Additive (0.5 < x ≤ 4 is additive) | MICUTBLP ([1]; plate with novobiocin): > 128 µg/mL | MICUTBLP ([1]; plate with rifampicin): > 128 µg/mL | MICUTBLP [MICcombo] [1, 18]: 16 µg/mL | MICUTBLP [MICcombo] [1, 19]: 16 µg/mL | MICantibiotic [MICcombo] [1, 20]: 32 µg/mL | MICantibiotic [MICcombo] [1, 21]: 4 µg/mL | MIC [2]: >128 µg/mL | MIC [3]: >128 µg/mL | MIC [4]: > 128 µg/mL | MIC [5]: 128 µg/mL | MIC [6]: >128 µg/mL | Interpretation ([7]; UTBLP + chloramphenicol): Additive (0.5 < x ≤ 4 is additive) | MICUTBLP [7, 22]: > 128 µg/mL | MICUTBLP [MICcombo] [7, 23]: 0.25 µg/mL | MICchloramphenicol [MICcombo] [7, 24]: 4 µg/mL | Interpretation ([8]; UTBLP + chloramphenicol): Additive (0.5 < x ≤ 4 is additive) | MICUTBLP [8, 22]: 128 µg/mL | MICUTBLP [MICcombo] [8, 23]: 16 µg/mL | MICchloramphenicol [MICcombo] [8, 24]: 4 µg/mL | Interpretation ([9]; UTBLP + novobiocin): Additive (0.5 < x ≤ 4 is additive) | Interpretation ([9]; UTBLP + rifampicin): Additive (0.5 < x ≤ 4 is additive) | MICUTBLP ([9]; plate with novobiocin): > 128 µg/mL | MICUTBLP ([9]; plate with rifampicin): > 128 µg/mL | MICUTBLP [MICcombo] [9, 18]: 16 µg/mL | MICUTBLP [MICcombo] [9, 19]: 16 µg/mL | MICantibiotic [MICcombo] [9, 20]: 1024 µg/mL | MICantibiotic [MICcombo] [9, 21]: 16 µg/mL | Interpretation ([10]; UTBLP + chloramphenicol): Additive (0.5 < x ≤ 4 is additive) | Interpretation ([10]; UTBLP + niclosamide): Additive (0.5 < x ≤ 4 is additive) | Interpretation ([10]; UTBLP + novobiocin): Additive (0.5 < x ≤ 4 is additive) | Interpretation ([10]; UTBLP + rifampicin): Additive (0.5 < x ≤ 4 is additive) | MICUTBLP ([10]; plate with chloramphenicol): > 128 µg/mL | MICUTBLP ([10]; plate with niclosamide): > 128 µg/mL | MICUTBLP ([10]; plate with novobiocin): > 128 µg/mL | MICUTBLP ([10]; plate with rifampicin): > 128 µg/mL | MICUTBLP [MICcombo] [10, 23]: 0.25 µg/mL | MICUTBLP [MICcombo] ([10]; UTBLP in combination with niclosamide): 0.25 µg/mL | MICUTBLP [MICcombo] [10, 18]: 0.25 µg/mL | MICUTBLP [MICcombo] [10, 19]: 0.25 µg/mL | MICantibiotic [MICcombo] [10, 24]: 16 µg/mL | MICantibiotic [MICcombo] ([10]; niclosamide in combination with the UTBLP): 1024 µg/mL | MICantibiotic [MICcombo] [10, 20]: 512 µg/mL | MICantibiotic [MICcombo] [10, 21]: 16 µg/mL | Interpretation ([11]; UTBLP + novobiocin): Additive (0.5 < x ≤ 4 is additive) | Interpretation ([11]; UTBLP + rifampicin): Additive (0.5 < x ≤ 4 is additive) | MICUTBLP ([11]; plate with novobiocin): > 128 µg/mL | MICUTBLP ([11]; plate with rifampicin): > 128 µg/mL | MICUTBLP [MICcombo] [11, 18]: 16 µg/mL | MICUTBLP [MICcombo] [11, 19]: 16 µg/mL | MICantibiotic [MICcombo] [11, 20]: 1024 µg/mL | MICantibiotic [MICcombo] [11, 21]: 512 µg/mL | MIC [12]: > 128 µg/mL | MIC [13]: 128 µg/mL | MIC [14]: > 128 µg/mL | MIC [15]: > 128 µg/mL | Interpretation ([16]; UTBLP + chloramphenicol): Additive (0.5 < x ≤ 4 is additive) | MICUTBLP [16, 22]: > 128 µg/mL | MICUTBLP [MICcombo] [16, 23]: 0.25 µg/mL | MICchloramphenicol [MICcombo] [16, 24]: 64 µg/mL | MICUTBLP [17, 22]: > 128 µg/mL | MICUTBLP [MICcombo] [17, 23]: 0.25 µg/mL | MICchloramphenicol [MICcombo] [17, 24]: 8 µg/mL

Reference: PMC8963254, “Effects of Lysine N-ζ-Methylation in Ultrashort Tetrabasic Lipopeptides (UTBLPs) on the Potentiation of Rifampicin, Novobiocin, and Niclosamide in Gram-Negative Bacteria” (Antibiotics, 2022)
